In patent US20050197372A1 (priority 2002, published 2005):

Columns and labels:
Format in all cases: cell-based, human
[1] = tested on: glycoprotein Ib (GPIb, CD42b); experiment: Whole blood flow cytometry, GP Ib expression; details: for Expression of glycoprotein Ib (GPIb, CD42b): baseline 246.4 ± 26.7
Experimental: (§1) None of them received aspirin or any other anti-platelet agents. All subjects underwent blood sampling after at least 30 minutes of rest and 2 or more hours of fasting. Blood was drawn between 8 and 10 a.m. in order to avoid any diurnal influence and sampled from an antecubital vein using a 21-gauge butterfly needle containing 3.8% sodium citrate (1:9 volume) after having discarded the first 1.5 ml of free running blood. Eleven Vacutainer tubes (4.5 ml) were collected for a total of 49 ml of whole blood-citrate mixture from each study participant. One tube was kept as an internal control and was incubated with buffer solution. […] To avoid possible observer bias, blood samples were coded and blinded. Sampling procedures, and platelet studies were performed by individuals unaware of the protocol.
(§2) The expression of platelet receptors was determined by using the following monoclonal antibodies: CD31 (platelet endothelial cell adhesion molecule (PECAM-1), CD41 (glycoprotein [GP] IIb/IIIa, (IIb (3), CD42b (GP Ib), CD 51/CD61 ((v (3, or vitronectin receptor), CD62p (P-selectin), CD107a (lysosome associated membrane protein-1; LAMP-1), CD 107b (LAMP-2), CD151 (platelet/endothelial tetraspan antigen-3; PETA-3), and PAC-1 for fibrinogen-platelet (PharMingen, San Diego, Calif.). Platelet-leukocyte interactions were assessed by using dual antibodies for a pan-platelet marker (CD 151), together with CD14, a monocyte/macrophage marker. The blood-citrate mixture (50 μl) was diluted with 450 μl Tris buffered saline (TBS) (10 mmol/L Tris, 0.15 mol/L sodium chloride) and mixed by gently inverting an Eppendorf tube 2 times. Five μl of the corresponding antibodies were then added to each solution and the samples were incubated for 30 minutes. After incubation, 400 μl of 2% buffered paraformaldehyde was added for fixation. The samples were analyzed by a Becton Dickinson FACScan flow cytometer set up to measure fluorescent light scatter, as described in Gurbel P A, et al., J Am Coll Cardiol. 1998; 31: 1466-1473. The data were collected in list mode files and then analyzed. P selectin was expressed as percent positive cells as described in Gurbel P A, et al, Am Heart J 2000; 139: 320-328. Other antigens were expressed as log mean fluorescence intensity.

[2] = tested on: platelet/endothelial tetraspan antigen -3 (PETA-3, CD151); experiment: Whole blood flow cytometry, PETA-3 expression; details: for Expression of platelet/endothelial tetraspan antigen -3 (PETA-3, CD151): baseline 88.7 ± 24.2
Experimental: as §1, §2

[3] = tested on: platelet vitronectin receptor (CD51/CD61); experiment: Whole blood flow cytometry, vitronectin receptor expression; details: whole blood flow cytometry
Experimental: as §1, §2

[4] = tested on: platelet-leukocyte microparticles (CD151 + CD14); experiment: Whole blood flow cytometry, platelet-leukocyte microparticles; details: for Formation of platelet-leukocyte microparticles (CD151 + CD14): baseline 92.2 ± 19.3
Experimental: as §1, §2

[5] = tested on: platelets (agglutination with fibrinogen-coated beads); experiment: Ultegra rapid platelet-function assay (RPFA-ASA); details: baseline 159 ± 27
Experimental: as §1
A rapid platelet-function assay cartridge test (RPFA-ASA, Ultegra® Accumetrics, Inc., San Diego, Calif., USA), using polystyrene beads coated cartridges with lyophilized human fibrinogen-coated microparticles, and propyl gallat served as an agonist. The whole blood citrate mixture was added to the cartridge, and agglutination between platelets and coated beads was recorded. The data mirrored turbidometric platelet aggregation and reflected the degree of platelet prostaglandin blockade. Smith J W, et al., Circulation 1999; 99: 620-625. Ultegra® assays were performed in duplicate. An electronic quality control test was performed on each instrument every day of use prior to performing any subject samples.

[6] = tested on: shear-induced platelet aggregation; experiment: PFA-100 closure time, epinephrine/collagen cartridge; details: baseline 201 ± 22
Experimental: as §1
The platelet function analyzer (PFA-100′, Dade Behring, Deerfield, Ill.) is a device that simulates changes in primary hemostasis after injury to a small vessel under flow conditions. Kundu S K, et al., Semin Thromb Hemost 1995; 21(Suppl 2): 106-112. The time required to obtain occlusion of the aperture was digitally recorded as a measure of shear-induced platelet aggregation. Closure time determinations were performed in duplicate.

[7] = tested on: lysosome associated membrane protein -1 (LAMP-1, CD107a); experiment: Whole blood flow cytometry, LAMP-1 expression; details: baseline 8.7 ± 3.2
Experimental: as §1, §2

[8] = tested on: Glycoprotein IIb/IIIa activity (fibrinogen binding, PAC-1); experiment: Whole blood flow cytometry, GP IIb/IIIa activity (PAC-1); details: for Glycoprotein IIb/IIIa activity (fibrinogen binding, PAC-1): baseline 10.3 ± 2.8
Experimental: as §1, §2

[9] = tested on: platelet glycoprotein IIb/IIIa antigen (GPIIb, CD41); experiment: Whole blood flow cytometry, GP IIb/IIIa antigen expression; details: for Expression of platelet glycoprotein IIb/IIIa antigen (GPIIb, CD41): baseline 521.8 ± 98.2
Experimental: as §1, §2

[10] = tested on: platelet/endothelial cell adhesion molecule-1 (PECAM-1, CD31); experiment: Whole blood flow cytometry, PECAM-1 expression; details: for Expression of platelet/endothelial cell adhesion molecule-1 (PECAM-1, CD31): baseline 69.2 ± 10.3
Experimental: as §1, §2

Structure (SMILES): CCCCC(=O)N(Cc1ccc(-c2ccccc2-c2nnn[nH]2)cc1)[C@H](C(=O)O)C(C)C [Valsartan, (S)-N-(1-carboxy-2-methyl-prop-1-yl)-N-pentanoyl-N-[2;(1H-tetrazol-5-yl)biphenyl-4-yl-methyl]amine, reference compound]
- Expression of glycoprotein Ib (GPIb, CD42b) ([1]; drug 10 nM): 256.4 ± 31.4 log MFI
- Expression of glycoprotein Ib (GPIb, CD42b) ([1]; drug 100 nM): 248.7 ± 20.9 log MFI
- Expression of glycoprotein Ib (GPIb, CD42b) ([1]; drug 1 μM): 264.8 ± 18.2 log MFI
- Expression of glycoprotein Ib (GPIb, CD42b) ([1]; drug 10 μM): 244.3 ± 46.9 log MFI
- Expression of glycoprotein Ib (GPIb, CD42b) ([1]; drug 100 μM): 255.9 ± 19.7 log MFI
- Effect on GP Ib (CD42) (in words) ([1]; whole blood flow cytometry): not associated with any effect
- Expression of platelet/endothelial tetraspan antigen -3 (PETA-3, CD151) ([2]; drug 10 nM): 84.1 ± 19.7 log MFI
- Expression of platelet/endothelial tetraspan antigen -3 (PETA-3, CD151) ([2]; drug 100 nM): 91.5 ± 23.4 log MFI
- Expression of platelet/endothelial tetraspan antigen -3 (PETA-3, CD151) ([2]; drug 1 μM): 81.6 ± 20.1 log MFI
- Expression of platelet/endothelial tetraspan antigen -3 (PETA-3, CD151) ([2]; drug 10 μM): 87.9 ± 18.3 log MFI
- Expression of platelet/endothelial tetraspan antigen -3 (PETA-3, CD151) ([2]; drug 100 μM): 91.7 ± 22.1 log MFI
- Effect on PETA-3 (CD151) (in words) ([2]; whole blood flow cytometry): not associated with any effect
- Effect on expression of vitronectin receptors (in words) [3]: moderately reduced
- Formation of platelet-leukocyte microparticles (CD151 + CD14) ([4]; drug 10 nM): 91.2 ± 20.5 log MFI
- Formation of platelet-leukocyte microparticles (CD151 + CD14) ([4]; drug 100 nM): 88.4 ± 21.9 log MFI
- Formation of platelet-leukocyte microparticles (CD151 + CD14) ([4]; drug 1 μM): 93.5 ± 23.8 log MFI
- Formation of platelet-leukocyte microparticles (CD151 + CD14) ([4]; drug 10 μM): 96.5 ± 18.7 log MFI
- Formation of platelet-leukocyte microparticles (CD151 + CD14) ([4]; drug 100 μM): 90.5 ± 19.2 log MFI
- Effect on platelet-leukocyte microparticles (CD151+14) (in words) ([4]; whole blood flow cytometry): not associated with any effect
- Ultegra Analyzer ([5]; drug 10 nM): 164 ± 16 platelet activation units
- Ultegra Analyzer ([5]; drug 100 nM): 160 ± 29 platelet activation units
- Ultegra Analyzer ([5]; drug 1 μM): 129 ± 26 platelet activation units
- Ultegra Analyzer ([5]; drug 10 μM): 130 ± 31 platelet activation units
- Ultegra Analyzer ([5]; drug 100 μM): 152 ± 19 platelet activation units
- PFA-100 closure time with the epinephrine/collagen cartridge ([6]; drug 10 nM): 187 ± 30 s
- PFA-100 closure time with the epinephrine/collagen cartridge ([6]; drug 100 nM): 209 ± 21 s
- PFA-100 closure time with the epinephrine/collagen cartridge ([6]; drug 1 μM): 268 ± 19 s
- PFA-100 closure time with the epinephrine/collagen cartridge ([6]; drug 10 μM): 278 ± 20 s
- PFA-100 closure time with the epinephrine/collagen cartridge ([6]; drug 100 μM): 200 ± 27 s
- Expression of lysosome associated membrane protein -1 (LAMP-1, CD107a) ([7]; drug 10 nM): 9.1 ± 3.8 log MFI
- Expression of lysosome associated membrane protein -1 (LAMP-1, CD107a) ([7]; drug 100 nM): 8.9 ± 2.7 log MFI
- Expression of lysosome associated membrane protein -1 (LAMP-1, CD107a) ([7]; drug 1 μM): 9.4 ± 3.9 log MFI
- Expression of lysosome associated membrane protein -1 (LAMP-1, CD107a) ([7]; drug 10 μM): 6.5 ± 3.2 log MFI
- Expression of lysosome associated membrane protein -1 (LAMP-1, CD107a) ([7]; drug 100 μM): 10.1 ± 4.5 log MFI
- Glycoprotein IIb/IIIa activity (fibrinogen binding, PAC-1) ([8]; drug 10 nM): 9.3 ± 2.87 log MFI
- Glycoprotein IIb/IIIa activity (fibrinogen binding, PAC-1) ([8]; drug 100 nM): 11.2 ± 3.4 log MFI
- Glycoprotein IIb/IIIa activity (fibrinogen binding, PAC-1) ([8]; drug 1 μM): 7.0 ± 2.9 log MFI
- Glycoprotein IIb/IIIa activity (fibrinogen binding, PAC-1) ([8]; drug 10 μM): 6.9 ± 2.7 log MFI
- Glycoprotein IIb/IIIa activity (fibrinogen binding, PAC-1) ([8]; drug 100 μM): 9.9 ± 3.1 log MFI
- Effect on fibrinogen binding (PAC-1) (in words) ([8]; whole blood flow cytometry): slightly reduced
- Expression of platelet glycoprotein IIb/IIIa antigen (GPIIb, CD41) ([9]; drug 10 nM): 531.2 ± 102.5 log MFI
- Expression of platelet glycoprotein IIb/IIIa antigen (GPIIb, CD41) ([9]; drug 100 nM): 502.9 ± 112.7 log MFI
- Expression of platelet glycoprotein IIb/IIIa antigen (GPIIb, CD41) ([9]; drug 1 μM): 498.2 ± 94.5 log MFI
- Expression of platelet glycoprotein IIb/IIIa antigen (GPIIb, CD41) ([9]; drug 10 μM): 506.7 ± 100.1 log MFI
- Expression of platelet glycoprotein IIb/IIIa antigen (GPIIb, CD41) ([9]; drug 100 μM): 455.2 ± 99.6 log MFI
- Effect on expression of GP IIb/IIIa (CD 41) (in words) ([9]; whole blood flow cytometry): decreased expression of CD41 only at a high dose
- Expression of platelet/endothelial cell adhesion molecule-1 (PECAM-1, CD31) ([10]; drug 10 nM): 71.8 ± 11.9 log MFI
- Expression of platelet/endothelial cell adhesion molecule-1 (PECAM-1, CD31) ([10]; drug 100 nM): 70.6 ± 12.6 log MFI
- Expression of platelet/endothelial cell adhesion molecule-1 (PECAM-1, CD31) ([10]; drug 1 μM): 74.5 ± 16.2 log MFI
- Expression of platelet/endothelial cell adhesion molecule-1 (PECAM-1, CD31) ([10]; drug 10 μM): 68.2 ± 16.2 log MFI
- Expression of platelet/endothelial cell adhesion molecule-1 (PECAM-1, CD31) ([10]; drug 100 μM): 70.6 ± 15.8 log MFI
- Effect on PECAM-1 (CD31) (in words) ([10]; whole blood flow cytometry): not associated with any effect
